{
  "source": "paper PMC6429214",
  "about": "“Design, Synthesis and Biological Evaluation of Isoxazole-Based CK1 Inhibitors Modified with Chiral Pyrrolidine Scaffolds” (Molecules, 2019)",
  "key": {"[1]": {"test_system": "MCF-7 cells", "assay": "MTT cell viability assay MCF-7", "format": "cell-based, human", "conditions": "Homo sapiens, MCF7, 48 h, mean ± SD", "protocol": "The human colon adenocarcinoma cell line HT-29 was grown in McCoy’s 5A medium, whereas MCF7 cells were grown in DMEM medium. All media were supplemented with 10% fetal calf serum (FCS), 100 units/mL penicillin, 100 µg/mL streptomycin and 2 mM glutamine. All cells were grown at 37 °C in a humidified 5% carbon dioxide atmosphere.\nIn order to analyze the effects of selected inhibitors on the cell viability of HT-29 and MCF7 cells, MTT assays were performed. 1 × 10^4 cells/well were seeded in 96-well cell culture plates. After 24 h cells were treated with increasing concentrations of the indicated inhibitor compounds, with untreated and DMSO-treated cells as control. After an incubation period of 48 h, 10 µL of MTT solution (5 mg/mL in PBS) were added and cells were incubated for 4 h. MTT-containing medium was carefully removed and 100 µL acidic isopropanol (0.04 N HCl in isopropanol) per well were added. To dissolve formazan crystals, plates were shaken for 30 min on an orbital shaker in the dark. Finally, dissolved crystals were measured spectrophotometrically at 570 nm. All experiments were performed in triplicate with four technical replicates per assay. Results were normalized considering the mean optical density value of control wells as 100%. GraphPad Prism 6 software (San Diego, CA, USA) was used to calculate EC50 values."}, "[2]": {"target": "T1, PKA (Homo sapiens, UniProt P17612)", "T1 construct": "purchased ProQinase", "assay": "33PanQinase panel", "format": "biochemical", "conditions": "read-out: Residual Activity (%)", "protocol": "(§1) Figure 5 Dendrogram representation of the selectivity profile of 29d at a concentration of 1 μM in a panel of 320 wild-type kinases (ProQinase, Freiburg, Germany). The residual kinase activity was determined compared to DMSO control. Images were generated using TREEspot Software Tool, DISCOVERX CORPORATION 2010. […]\n(§2) Table S2. Selectivity profile of compound 29d. The inhibitor has been screened at a concentration of 1 µM over a panel of 320 wild-type protein kinases by ProQinase GmbH (Freiburg, Germany) using an activity-based radiometric 33PanQinase® assay. Results are presented as percentage of residual kinase activity relative to […]\n(§3) control. The final DMSO concentration was 1 % in each reaction-mix. Classification of protein kinase families refers to Manning et al. (Manning, G.; Whyte, D. B.; Martinez, R.; Hunter, T.; Sudarsanam, S. The Protein Kinase Complement of the Human Genome. Science 2002, 298, 1912–1934): AGC = containing PKA, PKG, PKC families; […] = containing Cdk, MAPK, GSK3, CLK families; STE = homologs of yeast sterile 7, sterile 11, sterile 20 kinases; TK = tyrosine kinase; TKL = tyrosine kinase-like.\n(§4) Kinase name Kinase family Residual Activity (%)"}, "[3]": {"target": "T2, JNK1 (Homo sapiens, UniProt P45983)", "T2 construct": "purchased ProQinase", "T2 sequence (P45983 whole entry)": "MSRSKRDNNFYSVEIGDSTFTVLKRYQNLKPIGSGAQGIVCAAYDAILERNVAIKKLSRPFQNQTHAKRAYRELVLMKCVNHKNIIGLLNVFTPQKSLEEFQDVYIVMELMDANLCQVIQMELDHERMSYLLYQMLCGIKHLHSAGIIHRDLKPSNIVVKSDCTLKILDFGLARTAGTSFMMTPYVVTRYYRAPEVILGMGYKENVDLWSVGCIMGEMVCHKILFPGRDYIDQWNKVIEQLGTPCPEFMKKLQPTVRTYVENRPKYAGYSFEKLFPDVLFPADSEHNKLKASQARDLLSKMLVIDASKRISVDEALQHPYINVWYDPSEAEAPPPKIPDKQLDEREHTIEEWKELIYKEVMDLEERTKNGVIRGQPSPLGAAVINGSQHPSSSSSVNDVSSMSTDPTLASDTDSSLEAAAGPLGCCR", "assay": "33PanQinase panel", "format": "biochemical", "conditions": "JNK1, 1 µM; read-out: Residual Activity (%)", "protocol": "as §1, §2, §3, §4"}, "[4]": {"target": "T3, CAMKK2 (Homo sapiens, UniProt Q96RR4)", "T3 construct": "purchased ProQinase", "T3 sequence (Q96RR4 whole entry)": "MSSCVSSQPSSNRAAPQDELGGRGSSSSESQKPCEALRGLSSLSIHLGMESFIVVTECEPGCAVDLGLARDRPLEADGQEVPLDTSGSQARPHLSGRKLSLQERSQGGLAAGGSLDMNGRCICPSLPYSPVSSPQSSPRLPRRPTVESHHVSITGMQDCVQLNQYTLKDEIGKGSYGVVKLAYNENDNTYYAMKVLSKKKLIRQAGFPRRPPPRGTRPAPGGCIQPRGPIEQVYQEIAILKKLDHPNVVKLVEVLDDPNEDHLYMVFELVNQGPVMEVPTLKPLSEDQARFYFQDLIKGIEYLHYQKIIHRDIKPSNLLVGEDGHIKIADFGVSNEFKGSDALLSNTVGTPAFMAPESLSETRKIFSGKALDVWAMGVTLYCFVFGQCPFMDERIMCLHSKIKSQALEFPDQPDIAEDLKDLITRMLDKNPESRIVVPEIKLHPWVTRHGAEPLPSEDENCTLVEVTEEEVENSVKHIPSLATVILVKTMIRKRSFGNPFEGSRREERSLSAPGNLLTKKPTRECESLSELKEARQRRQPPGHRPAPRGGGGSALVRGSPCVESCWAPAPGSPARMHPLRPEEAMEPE", "assay": "33PanQinase panel", "format": "biochemical", "conditions": "CAMKK2, 1 µM; read-out: Residual Activity (%)", "protocol": "as §1, §2, §3, §4"}, "[5]": {"target": "T4, MARK2 (Homo sapiens, UniProt Q7KZI7)", "T4 construct": "purchased ProQinase", "T4 sequence (Q7KZI7 whole entry)": "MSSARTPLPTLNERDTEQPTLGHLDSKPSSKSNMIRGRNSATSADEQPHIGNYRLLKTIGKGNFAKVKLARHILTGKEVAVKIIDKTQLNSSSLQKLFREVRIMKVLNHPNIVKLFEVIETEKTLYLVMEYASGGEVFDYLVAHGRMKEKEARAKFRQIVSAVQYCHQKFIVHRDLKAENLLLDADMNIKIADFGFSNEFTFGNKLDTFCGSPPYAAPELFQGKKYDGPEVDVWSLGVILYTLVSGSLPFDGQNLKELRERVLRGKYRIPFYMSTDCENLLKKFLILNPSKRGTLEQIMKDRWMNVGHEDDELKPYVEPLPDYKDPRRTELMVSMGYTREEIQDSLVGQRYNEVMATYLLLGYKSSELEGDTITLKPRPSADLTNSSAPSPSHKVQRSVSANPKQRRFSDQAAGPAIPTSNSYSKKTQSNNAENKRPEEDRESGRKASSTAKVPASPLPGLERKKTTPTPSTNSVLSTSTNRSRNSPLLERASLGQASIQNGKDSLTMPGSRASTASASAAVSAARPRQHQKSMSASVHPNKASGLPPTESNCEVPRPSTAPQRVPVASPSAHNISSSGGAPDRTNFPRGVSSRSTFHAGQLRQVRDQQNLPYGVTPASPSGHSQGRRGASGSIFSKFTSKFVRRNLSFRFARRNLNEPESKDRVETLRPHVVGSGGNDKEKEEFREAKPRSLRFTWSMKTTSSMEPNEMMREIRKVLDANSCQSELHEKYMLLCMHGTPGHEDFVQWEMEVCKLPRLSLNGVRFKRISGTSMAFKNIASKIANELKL", "assay": "33PanQinase panel", "format": "biochemical", "conditions": "MARK2, 1 µM; read-out: Residual Activity (%)", "protocol": "as §1, §2, §3, §4"}, "[6]": {"target": "T5, ZAP70 (Homo sapiens, UniProt P43403)", "T5 construct": "purchased ProQinase", "assay": "33PanQinase panel", "format": "biochemical", "conditions": "ZAP70, 1 µM; read-out: Residual Activity (%)", "protocol": "as §1, §2, §3, §4"}, "[7]": {"target": "T6, DYRK1B (Homo sapiens, UniProt Q9Y463)", "T6 construct": "purchased ProQinase", "T6 sequence (Q9Y463 whole entry)": "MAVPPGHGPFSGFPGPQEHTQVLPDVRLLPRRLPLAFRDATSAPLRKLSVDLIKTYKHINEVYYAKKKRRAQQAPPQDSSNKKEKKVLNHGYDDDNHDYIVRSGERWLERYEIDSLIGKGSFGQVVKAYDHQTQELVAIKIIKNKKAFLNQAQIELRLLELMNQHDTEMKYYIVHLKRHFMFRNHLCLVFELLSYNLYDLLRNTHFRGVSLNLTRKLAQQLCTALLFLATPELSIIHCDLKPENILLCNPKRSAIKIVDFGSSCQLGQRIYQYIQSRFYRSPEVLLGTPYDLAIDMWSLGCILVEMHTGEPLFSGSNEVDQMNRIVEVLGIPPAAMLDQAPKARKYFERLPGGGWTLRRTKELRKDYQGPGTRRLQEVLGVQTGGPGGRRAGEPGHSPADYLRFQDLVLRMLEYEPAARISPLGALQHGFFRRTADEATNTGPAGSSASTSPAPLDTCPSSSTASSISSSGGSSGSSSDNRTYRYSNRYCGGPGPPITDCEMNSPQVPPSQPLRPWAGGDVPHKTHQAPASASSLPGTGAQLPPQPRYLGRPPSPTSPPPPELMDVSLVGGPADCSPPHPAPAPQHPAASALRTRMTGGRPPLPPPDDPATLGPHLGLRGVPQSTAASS", "assay": "33PanQinase panel", "format": "biochemical", "conditions": "read-out: Residual Activity (%)", "protocol": "as §1, §2, §3, §4"}, "[8]": {"target": "T7, CDK1/CycA2 (Homo sapiens, UniProt P06493)", "T7 construct": "purchased ProQinase", "T7 sequence (P06493 whole entry)": "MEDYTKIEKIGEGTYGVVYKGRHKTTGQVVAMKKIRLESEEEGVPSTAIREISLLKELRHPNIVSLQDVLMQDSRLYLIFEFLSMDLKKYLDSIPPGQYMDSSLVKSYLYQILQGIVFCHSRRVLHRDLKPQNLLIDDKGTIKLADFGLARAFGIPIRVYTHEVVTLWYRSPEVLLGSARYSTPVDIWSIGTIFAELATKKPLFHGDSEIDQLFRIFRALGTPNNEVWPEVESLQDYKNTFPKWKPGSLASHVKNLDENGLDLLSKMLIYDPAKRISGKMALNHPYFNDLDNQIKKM", "T7 sequence (P20248 whole entry partner)": "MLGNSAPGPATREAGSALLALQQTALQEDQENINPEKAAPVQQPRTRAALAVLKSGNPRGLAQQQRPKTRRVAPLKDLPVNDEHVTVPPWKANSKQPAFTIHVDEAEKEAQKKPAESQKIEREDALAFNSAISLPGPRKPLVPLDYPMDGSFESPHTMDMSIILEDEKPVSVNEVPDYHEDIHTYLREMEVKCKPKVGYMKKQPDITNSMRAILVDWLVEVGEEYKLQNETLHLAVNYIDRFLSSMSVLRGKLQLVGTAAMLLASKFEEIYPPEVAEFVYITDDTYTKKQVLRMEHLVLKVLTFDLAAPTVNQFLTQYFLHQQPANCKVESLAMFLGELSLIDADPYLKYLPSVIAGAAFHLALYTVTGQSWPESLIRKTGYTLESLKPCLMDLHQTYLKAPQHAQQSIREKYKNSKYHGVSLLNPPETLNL", "assay": "33PanQinase panel", "format": "biochemical", "conditions": "CDK1/CycA2, 1 µM; read-out: Residual Activity (%)", "protocol": "as §1, §2, §3, §4"}, "[9]": {"target": "T8, MST1 (Homo sapiens, UniProt Q13043)", "T8 construct": "purchased ProQinase", "T8 sequence (Q13043 whole entry)": "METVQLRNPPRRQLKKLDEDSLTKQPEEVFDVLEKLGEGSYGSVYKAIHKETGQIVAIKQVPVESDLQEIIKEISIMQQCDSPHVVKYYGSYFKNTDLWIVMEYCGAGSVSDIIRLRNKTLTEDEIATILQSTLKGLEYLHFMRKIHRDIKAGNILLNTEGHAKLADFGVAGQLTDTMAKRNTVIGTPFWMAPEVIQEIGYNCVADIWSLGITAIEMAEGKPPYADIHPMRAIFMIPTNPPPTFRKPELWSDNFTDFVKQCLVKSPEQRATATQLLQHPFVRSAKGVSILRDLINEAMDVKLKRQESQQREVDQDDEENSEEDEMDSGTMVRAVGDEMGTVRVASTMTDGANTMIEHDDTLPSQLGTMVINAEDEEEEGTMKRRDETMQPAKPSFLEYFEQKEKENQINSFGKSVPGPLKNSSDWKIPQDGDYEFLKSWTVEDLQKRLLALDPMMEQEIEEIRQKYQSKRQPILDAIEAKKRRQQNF", "assay": "33PanQinase panel", "format": "biochemical", "conditions": "MST1, 1 µM; read-out: Residual Activity (%)", "protocol": "as §1, §2, §3, §4"}, "[10]": {"target": "T9, p38-beta (Homo sapiens, UniProt Q15759)", "T9 construct": "purchased ProQinase", "T9 sequence (Q15759 whole entry)": "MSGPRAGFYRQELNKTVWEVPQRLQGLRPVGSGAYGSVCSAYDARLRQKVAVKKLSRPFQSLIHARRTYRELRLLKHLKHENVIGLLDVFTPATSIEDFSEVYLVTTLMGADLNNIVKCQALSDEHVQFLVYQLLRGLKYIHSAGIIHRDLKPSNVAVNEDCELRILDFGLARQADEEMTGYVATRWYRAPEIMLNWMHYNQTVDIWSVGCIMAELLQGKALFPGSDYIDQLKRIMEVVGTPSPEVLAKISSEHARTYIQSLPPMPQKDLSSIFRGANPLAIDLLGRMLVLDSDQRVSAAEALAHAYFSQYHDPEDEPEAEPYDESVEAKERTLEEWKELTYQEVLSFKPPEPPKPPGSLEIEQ", "assay": "33PanQinase panel", "format": "biochemical", "conditions": "read-out: Residual Activity (%)", "protocol": "as §1, §2, §3, §4"}, "[11]": {"target": "T10, PAK6 (Homo sapiens, UniProt Q9NQU5)", "T10 construct": "purchased ProQinase", "T10 sequence (Q9NQU5 whole entry)": "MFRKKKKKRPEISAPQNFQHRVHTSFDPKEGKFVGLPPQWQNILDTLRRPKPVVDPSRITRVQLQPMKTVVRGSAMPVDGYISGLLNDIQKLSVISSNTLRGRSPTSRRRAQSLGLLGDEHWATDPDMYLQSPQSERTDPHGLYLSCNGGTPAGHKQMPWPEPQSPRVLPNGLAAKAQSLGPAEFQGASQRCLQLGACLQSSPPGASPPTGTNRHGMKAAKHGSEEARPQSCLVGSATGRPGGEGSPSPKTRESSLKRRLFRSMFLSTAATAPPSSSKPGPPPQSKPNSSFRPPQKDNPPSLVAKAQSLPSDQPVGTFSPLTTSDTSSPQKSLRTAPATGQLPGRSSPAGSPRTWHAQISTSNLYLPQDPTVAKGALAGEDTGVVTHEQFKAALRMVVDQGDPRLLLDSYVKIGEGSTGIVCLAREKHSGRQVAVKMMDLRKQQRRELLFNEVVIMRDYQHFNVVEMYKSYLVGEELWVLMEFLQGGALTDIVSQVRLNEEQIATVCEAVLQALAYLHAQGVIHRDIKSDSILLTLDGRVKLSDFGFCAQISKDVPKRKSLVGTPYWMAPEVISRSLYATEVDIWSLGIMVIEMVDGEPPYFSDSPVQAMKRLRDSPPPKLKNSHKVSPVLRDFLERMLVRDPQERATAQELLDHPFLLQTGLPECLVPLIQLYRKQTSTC", "assay": "33PanQinase panel", "format": "biochemical", "conditions": "PAK6, 1 µM; read-out: Residual Activity (%)", "protocol": "as §1, §2, §3, §4"}, "[12]": {"target": "T11, ABL1 (Homo sapiens, UniProt P00519)", "T11 construct": "purchased ProQinase", "assay": "33PanQinase panel", "format": "biochemical", "conditions": "ABL1, 1 µM; read-out: Residual Activity (%)", "protocol": "as §1, §2, §3, §4"}, "[13]": {"target": "T12, human CK1δ transcription variant 1 (Homo sapiens, UniProt P48730)", "T12 construct": "made in house; own knowledge", "assay": "in-vitro kinase assay CK1δ", "format": "biochemical", "conditions": "10 µM ATP, mean ± SD, n = 3", "text": "Human CK1δ transcription variant 1 (CK1δ TV1_NM_001893.4) has been amplified from the cDNA obtained from HT1080 cell line, using CK1δ_forward-primer: 5′-GGATCCATGGAGCTGAGAGTCGGGAACAG-3′ and CK1δ_reverse primer: 5′-GGATCCTCATCGGTGCACGACAGACTGA-3′. The CK1δ DNA construct was cloned into pSC-A cloning vector (Agilent technologies, Munich, Germany) with BamHI enzyme, to generate plasmids pGEX6-P3-GST-CK1δ TV1 (FP1417). Overexpression and purification of GST-CK1δ TV1 protein has been performed as described before.\nIn vitro kinase assays have been performed to both screen, as well as to calculate IC50 values of the compounds for CK1δ and ε. Each reaction was carried out using 2 μCi ^32P-γ-ATP in kinase buffer containing 25 mM Tris-HCl (pH = 7.5), 10 mM MgCl2, 100 µM EDTA, and 10 µM ATP. […] Recombinant human CK1δ transcription variant 1 (expressed and purified as GST fusion protein as described earlier) and human GST-CK1ε (PV3500; Invitrogen) were used as sources of enzyme, while α-casein (C6780; Sigma-Aldrich) was used as substrate. Kinase reactions were incubated for 30 min at 30 °C and then stopped with loading dye (50 mM Tris-HCl (pH = 6.8), 5% (v/v) β-mercaptoethanol (MSH), 10% (v/v) glycerol, 2% (w/v) sodium dodecyl sulfate (SDS), 0.1% (w/v) bromphenol blue). Subsequently, reactions were separated by sodium dodecyl sulfate polyacrylamide gel electrophoresis (SDS-PAGE) and phosphorylated protein bands were visualized on dried gels by autoradiography. The phosphorylated substrate protein bands were excised, and phosphorylation was quantified by Cherenkov counting. Dose-response analyses and calculation of IC50 values were carried out using GraphPad Prism 6 statistical software (San Diego, CA, USA)."}},
  "data": [
    {"compound": "COc1ccc(-c2cc(C(=O)Nc3cc(-c4c(-c5ccc(F)cc5)noc4C(C)C)ccn3)n(CC3NCC(O)C3O)c2)cc1", "note": "(centres unmarked) [29d]", "values": [
      {"measurement": "viability at 5 µM", "setting": "[1]; 5 µM", "value": "100 ± 16", "unit": "%"},
      {"measurement": "viability at 10 µM", "setting": "[1]; 10 µM", "value": "76 ± 19", "unit": "%"},
      {"measurement": "viability at 20 µM", "setting": "[1]; 20 µM", "value": "5.6 ± 1.5", "unit": "%"},
      {"measurement": "EC50", "setting": "[1]", "value": "10 ± 2", "unit": "µM"},
      {"measurement": "remaining activity at 1 µM", "setting": "[2]", "value": 96, "unit": "%"},
      {"measurement": "remaining activity at 1 µM", "setting": "[3]", "value": 63, "unit": "%"},
      {"measurement": "remaining activity at 1 µM", "setting": "[4]", "value": 97, "unit": "%"},
      {"measurement": "remaining activity at 1 µM", "setting": "[5]", "value": 97, "unit": "%"},
      {"measurement": "remaining activity at 1 µM", "setting": "[6]", "value": 116, "unit": "%"},
      {"measurement": "remaining activity at 1 µM", "setting": "[7]", "value": 104, "unit": "%"},
      {"measurement": "remaining activity at 1 µM", "setting": "[8]", "value": 102, "unit": "%"},
      {"measurement": "remaining activity at 1 µM", "setting": "[9]", "value": 101, "unit": "%"},
      {"measurement": "remaining activity at 1 µM", "setting": "[10]", "value": 74, "unit": "%"},
      {"measurement": "remaining activity at 1 µM", "setting": "[11]", "value": 83, "unit": "%"},
      {"measurement": "remaining activity at 1 µM", "setting": "[12]", "value": 95, "unit": "%"},
      {"measurement": "IC50", "setting": "[13]", "value": "0.038 ± 0.003", "unit": "µM"},
      {"measurement": "remaining activity at 10 µM", "setting": "[13]; 10 µM compound, read-out: CK1δ Residual Activity [%] at 10 µM ± SD", "value": "2.9 ± 0.3", "unit": "%"}
    ]}
  ]
}
